According to US10106778B2, “Selective targeting of cancer stem cells” (Whitehead Institute for Biomedical Research, priority 2012, dated 2018):

Legend:
Type in all cases: cell-based, human
NAMECs = test: Cellular plasticity of NAMECs: differentiation by PGE2 blockade and inhibitor sensitivity; settings: for sensitivity of GW-treated (differentiated) NAMECs: after differentiation with GW627368; for sensitivity of NAMECs relative to parental HMLE cells: undifferentiated NAMECs
Text: NAMECs are phenotypically plastic and can transit between the epithelial and mesenchymal cell state. The cells relied on autocrinal PGE2 signaling for maintenance of the mesenchymal state.

[1] = system: NAMEC-Tom and HMLE-GFP cells; test: Kinase inhibitor screen: co-mixed NAMEC-Tom and HMLE-GFP cells, six days of inhibitor, FACS; settings: six days of inhibitor treatment, FACS relative to DMSO
Procedure: (§1) Kinase inhibitors and other chemical compounds were obtained from various sources listed below. These were dissolved or diluted in DMSO. To set up the screen, 75,000 NAMEC-Tom and 15,000 HMLE-GFP cells were seeded into each well of a 6-well tissue culture plate. The following day, spent media was replaced with 3 ml of fresh media. Inhibitors were added to achieve the desired range of concentrations. For control treatment, DMSO was added. Fresh media containing inhibitors were replaced daily during the six day period. For analysis, cells were trypsinized with 1 ml 0.15% trypsin, diluted with 1 ml serum-containing media and fixed with 1 ml of 4% paraformaldehyde. FACS analysis was performed to analyze the proportion of surviving cells relative to DMSO-treated control for NAMEC-Tom or HMLE-GFP cells. To test the effects of these inhibitors on CSCs and non-CSCs, NAMEC-Ras-Tom and […] were used in similar co-mixed experiments.
as §1, with “experiments. To assess the fraction of cells undergoing apoptosis, cells were exposure to agents for three days without fresh media and then analyzed with Annexin V-APC (BD Biosciences).” for “experiments.”
We undertook to identify kinase inhibitors that selectively targeted mesenchymal-like cells including those with stem cell properties. To do so, we established a screen that measured the ability of candidate inhibitors to preferentially deplete NAMECs but not parental HMLE cells from cell cultures. Thus, we labeled NAMECs with the tdTomato red fluorescent protein (NAMEC-Tom) and the HMLE cells with the GFP green fluorescent protein (HMLE-GFP); we then attempted to reconstitute certain stem cell and non-stem cell interactions that might operate in vivo by mixing the two cell populations in 6-well adherent tissue culture plates. One day later, we challenged these cultures with a variety of kinase inhibitors (FIG. 2A).
The robustness of this screen, designed to identify mesenchymal cell-specific inhibitors, was enhanced by seeding NAMEC-Tom and HMLE-GFP cells in a 5:1 ratio. While NAMEC-Tom cells, like others that have passed through an EMT, proliferated marginally more slowly than their epithelial counterparts in culture, their initial advantage in seeding density was compensated over the course of the six day-long assays by the more rapid proliferation of the HMLE-GFP cells (FIG. 11). After six days of treatment, the relative proportions of NAMEC-Tom and HMLE-GFP cells were quantified with fluorescent-activated cell sorting (FACS) to determine the selective effects, if any, of these various inhibitors (FIG. 2A).

[2] = system: NAMEC-Tom-Ras and HMLE-GFP-Ras cells; test: Co-mixed NAMEC-Tom-Ras (CSC-enriched) and HMLE-GFP-Ras (CSC-depleted) cells, kinase inhibition, FACS; settings: for which cell type is more sensitive / selected against: dose response, co-mixed cells; for resistance of NAMEC-Tom-Ras cells relative to HMLE-GFP-Ras cells: at LC50, co-mixed cells
Procedure: as §1
as §1, with “experiments. To assess the fraction of cells undergoing apoptosis, cells were exposure to agents for three days without fresh media and then analyzed with Annexin V-APC (BD Biosciences).” for “experiments.”
Having determined that NAMEC-Ras cells were enriched for CSCs, we mixed NAMEC-Ras cells labeled with tdTomato (NAMEC-Tom-Ras) and HMLE-Ras cells labeled with GFP (HMLE-GFP-Ras) and re-tested the effects of kinase inhibition as described above. […] In addition, these NAMEC-Tom-Ras cells were more resistant to paclitaxel (11.3 fold) and staurosporine (32.8 fold) than the corresponding HMLE-GFP-Ras cells used as controls (FIG. 3C).

NAMEC-Tom cells = test: Annexin V apoptosis in co-mixed culture, NAMEC-Tom gate; settings: co-mixed cells treated for three days
Procedure: as §1, with “experiments. To assess the fraction of cells undergoing apoptosis, cells were exposure to agents for three days without fresh media and then analyzed with Annexin V-APC (BD Biosciences).” for “experiments.”
(§2) To assess how PKC inhibitors function in these cell populations, we tested whether they induced apoptosis. Thus, the mixed cell populations described above were treated with one of the inhibitors (Ro-31-8220) for three days and assessed with Annexin V, which marks apoptotic cells. 89% of NAMEC-Tom cells underwent apoptosis in comparison to 22.4% of the HMLE-GFP cells (FIG. 2E).

HMLE-GFP cells = test: Annexin V apoptosis in co-mixed culture, HMLE-GFP gate; settings: co-mixed cells treated for three days
Procedure: as §1, with “experiments. To assess the fraction of cells undergoing apoptosis, cells were exposure to agents for three days without fresh media and then analyzed with Annexin V-APC (BD Biosciences).” for “experiments.”
as §2

p-FRA1^S265 = test: Western blot of FRA1 phosphorylation in NAMECs
Procedure: (§3) To obtain protein extracts, cells were scraped from culture dishes in chilled PBS, centrifuged at 450×g for 4 min at 4° C., washed again in PBS, and incubated for 20 min in ice cold lysis buffer containing freshly added protease inhibitors (0.5 mM phenylmethylsulfonyl fluoride, 10 μg/ml leupeptin, 2 μg/ml aprotonin). Lysates were cleared by centrifugation at 12,100×g, 4° C. for 10 min and the supernatant was snap frozen in liquid nitrogen. Protein concentrations were determined using Bradford Dye (Bio-Rad). 30 μg total protein was separated by SDS-PAGE on NuPAge gels (Invitrogen), and transferred to Hybond-P PVDF membrane (GE Healthcare). The membrane was probed with specific primary antibodies and antibody-protein complex detected by HRP-conjugated antibodies and ECL-Plus (Amersham Biosciences).
FRA1 is a member of the Fos family of transcription factors, which is also comprised of c-Fos, FosB and Fra2. Together with the Jun family of transcription factors composed of c-Jun, JunB and JunD, individual members of the Fos and Jun family associate with one another to form heterodimeric activator protein-1 (AP-1) complexes that bind and transcriptionally regulate target gene expression when phosphorylated (Eferl and Wagner, 2003).
We assessed whether the observed increased p-FRA1 activity in the mesenchymal cells could be further augmented by elevated ERK signaling during EMT. Accordingly, inhibition of ERK1/2 phosphorylation with a MEK inhibitor was able to decrease p-FRA1^S265 levels by 65% but not the levels of total FRA1 or p-c-Jun (FIG. 5G), confirming that ERK1/2 signaling promoted p-FRA1 activity.

[3] = system: p-PKCα^S497 and p-PKCα^T638; test: Western blot of PKCα phosphorylation in NAMECs
Procedure: as §3
We subsequently sought to determine whether PKCα activation was directly dependent upon PDGFR-PLCγ. Exposure of NAMECs to a PLCγ inhibitor (U73122) reduced active p-PKCα^S497 and p-PKCα^T638 by 1.3 and 3.1-fold respectively within 30 min, and 6.3 and 4.2-fold respectively by 60 min (FIG. 13C); total PKCα level was unchanged (FIG. 13C). The inhibition of PDGFR in NAMECs, similarly, led to a loss of PKCα phosphorylation (p-PKCα^S497: 2.8 fold, p-PKCα^T638: 5.9 fold), as illustrated once again by the loss of active p-PKCα^S497 and p-PKCα^T638 within 30 min, while total PKCα remained constant (FIG. 13D).

Compound: CCOc1c2c(c(OCC)c3ccccc13)C(=O)N(c1ccc(CC(=O)NS(=O)(=O)c3ccccc3)cc1)C2 [GW627368]
- protein changes accompanying differentiation (NAMECs; PGE2 inhibition): downregulation of p-PKCα and SPHK1/2 proteins
- morphology of NAMECs (NAMECs; blocked PGE2 signaling): differentiated into an epithelial morphology within three weeks

Compound: COc1cccc2c1C(=O)c1c(O)c3c(c(O)c1C2=O)C[C@@](O)(C(=O)CO)C[C@@H]3O[C@H]1C[C@H](N)[C@H](O)[C@H](C)O1 [doxorubicin]
- preferential depletion of NAMEC-Tom or HMLE-GFP cells in co-mixed culture [1]: preferentially depleted the epithelial HMLE-GFP cells

Compound: CCCCCCCCc1cccc(NC(=O)[C@H](N)COP(=O)(O)O)c1 [VPC23019]
- which cell type is more sensitive / selected against [2]: selected against NAMEC-Tom-Ras cells relative to HMLE-GFP-Ras cells in a dose-dependent manner

Compound: CC(=O)O[C@H]1C(=O)[C@@]2(C)[C@H]([C@H](OC(=O)c3ccccc3)[C@]3(O)C[C@H](OC(=O)[C@H](O)[C@@H](NC(=O)c4ccccc4)c4ccccc4)C(C)=C1C3(C)C)[C@]1(OC(C)=O)CO[C@@H]1C[C@@H]2O [paclitaxel]
- preferential depletion of NAMEC-Tom or HMLE-GFP cells in co-mixed culture [1]: preferentially depleted the epithelial HMLE-GFP cells
- apoptosis of NAMEC-Tom cells (Annexin V) (NAMEC-Tom cells): 22.3%
- apoptosis of HMLE-GFP cells (Annexin V) (HMLE-GFP cells): 89%
- resistance of NAMEC-Tom-Ras cells relative to HMLE-GFP-Ras cells [2]: 11.3 fold
- sensitivity of GW-treated (differentiated) NAMECs (NAMECs): became sensitive
- sensitivity of NAMECs relative to parental HMLE cells (NAMECs): resistant

Compound: CN[C@@H]1C[C@H]2O[C@@](C)([C@@H]1OC)n1c3ccccc3c3c4c(c5c6ccccc6n2c5c31)C(=O)NC4 [staurosporine]
- preferential depletion of NAMEC-Tom or HMLE-GFP cells in co-mixed culture [1]: preferentially depleted the epithelial HMLE-GFP cells
- apoptosis of NAMEC-Tom cells (Annexin V) (NAMEC-Tom cells): 29.7%
- apoptosis of HMLE-GFP cells (Annexin V) (HMLE-GFP cells): 98%
- resistance of NAMEC-Tom-Ras cells relative to HMLE-GFP-Ras cells [2]: 32.8 fold
- sensitivity of GW-treated (differentiated) NAMECs (NAMECs): became sensitive
- sensitivity of NAMECs relative to parental HMLE cells (NAMECs): resistant

Compound: CN(C)CCCn1cc(C2=C(c3c[nH]c4ccccc34)C(=O)NC2=O)c2ccccc21 [bisindolylmaleimide I]
- preferential depletion of NAMEC-Tom or HMLE-GFP cells in co-mixed culture [1]: diminished NAMEC-Tom cells relative to HMLE-GFP cells
- effect on phosphorylation of FRA1 (p-FRA1^S265; applied to NAMECs for 30 min): blocked the phosphorylation of FRA1
- total FRA1 (p-FRA1^S265; within 30 min of treatment): unchanged

Compound: O=C(Nc1cccc(Nc2cc(Nc3cccc(C(F)(F)F)c3)ncn2)c1)C1CC1 [EGFR Inh]
- which cell type is more sensitive / selected against [2]: HMLE-Ras-GFP were more sensitive

Compound: COc1ccc2c(c1)CC[C@@H]1[C@@H]2CC[C@]2(C)[C@@H](NCCCCCCN3C(=O)C=CC3=O)CC[C@@H]12 [U73122]
- effect on PKCα phosphorylation [3]: The upregulation of PKCα phosphorylation by PDGFC was blocked
- total PKCα level [3]: unchanged
- reduction of p-PKCα^S497 ([3]; by 60 min): 6.3 fold
- reduction of p-PKCα^T638 ([3]; by 60 min): 4.2 fold
- reduction of p-PKCα^S497 ([3]; within 30 min): 1.3 fold
- reduction of p-PKCα^T638 ([3]; within 30 min): 3.1 fold

Compound: PKC 20-28: PKCα inhibitor, EMD Biosciences 476480 (FARKGALRQ; pseudosubstrate peptide; UniProt P17252 20-28, looked up, fragment)
- preferential depletion of NAMEC-Tom or HMLE-GFP cells in co-mixed culture [1]: diminished NAMEC-Tom cells relative to HMLE-GFP cells

Compound: Oc1ccc(Nc2nc(-c3ccc(Cl)cc3)cs2)cc1 [SKI2]
- sensitivity of GW-treated (differentiated) NAMECs (NAMECs): lost their sensitivity
- sensitivity of NAMECs relative to parental HMLE cells (NAMECs): more sensitive

Compound: CC#CC(=O)Nc1cc2c(Nc3ccc(F)c(Cl)c3)ncnc2cn1 [EGFR Inh III]
- which cell type is more sensitive / selected against [2]: HMLE-Ras-GFP were more sensitive
